In patent US4801596A, “Nitroxy amino propanols for treating heart and circulatory diseases” (Boehringer Mannheim GmbH, priority 1984, dated 1989):
Where a name gives a salt, the structure may show the parent alone.

Experiments:
rat livers = experiment: denitration rate in re-perfused rat livers (nitrate-like action); settings: rat liver re-perfused 4 min, equimolar 5×10^-5 M/l; freed NO2 determined in the perfusate; high values = fast denitration
β-receptor = experiment: β-blocking effectiveness: inhibition of isoprenaline-induced increase of the frequency in rabbits; assay type: in vivo, rabbit; settings: i.v., isoprenaline 1 mcg/kg i.v.

Compound	Vrel (denitration rate in relation to isosorbide-5-mononitrate) (rat livers)	ID 50 fcor (dose causing 50% inhibition of the increase of the frequency through isoprenaline) (β-receptor)
CC(C)(C)NCC(O)COc1ccc(CC(=O)NCCCO[N+](=O)[O-])cc1 (centres unmarked) [Example 8, 1-[4-[(3-Nitroxypropyl)-amino]-carbonylmethyl]-phenoxy-3-tert.-butylaminopropan-2-ol fumarate]	0.48	
O=[N+]([O-])O[C@@H]1CO[C@H]2[C@@H]1OC[C@@H]2O [Isosorbide-5-mononitrate, isosorbide-5-mononitrate, reference compound]	0.86	
CC(C)(C)NCC(O)COc1ccc(NC(=O)C[C@@H]2CCCC[C@H]2O[N+](=O)[O-])cc1 (relative stereo) [2 (g), 1-[4-[[(t-2-nitroxy)-cyclohexyl]-r-1-methylcarbonylamino] ]-phenoxy-3-tert.-butylaminopropan-2-ol hydrochloride]	0.97	4 158 mcg/kg
CC(C)(C)NCC(O)COc1ccc(NC(=O)CCCCO[N+](=O)[O-])cc1 (centres unmarked) [2 (a), 1-[4-(4-nitroxybutyl)-carbonylamino]-phenoxy-3-tert.-butylaminopropan-2-ol fumarate]	0.65	
CC(C)(C)NCC(O)COc1ccc(NC(=O)CCCO[N+](=O)[O-])cc1 (centres unmarked) [Example 1, 1-[4-(3-Nitroxypropyl)-carbonylamino]-phenoxy-3-tert.-butylaminopropan-2-olhydrochloride]	0.77	2 326 mcg/kg
CC(=O)c1cc(NC(=O)CCCO[N+](=O)[O-])ccc1OCC(O)CNC(C)(C)C (centres unmarked) [6 (a), 1-[2-methylcarbonyl-4-(3-nitroxypropyl)-carbonylamino]-phenoxy-3-tert.-butylaminopropan-2-ol fumarate]	0.51	886 µg/kg
CC(C)(C)NCC(O)COc1ccc(NC(=O)[C@H]2CC[C@H](O[N+](=O)[O-])CC2)cc1 (relative stereo) [2 (e), 1-[4-[[(t-4-nitroxy)-cyclohexyl]-r-1-carbonylamino]]-phenoxy-3-tert.-butylaminopropan-2-ol hydrochloride]	0.95	4 006 mcg/kg
CCOC(=O)c1cc(NC(=O)CCCO[N+](=O)[O-])ccc1OCC(O)CNC(C)(C)C (centres unmarked) [Example 7, 1-[2-Ethoxycarbonyl-4-(3-nitroxypropyl)-carbonylamino]phenoxy-3-tert.-butylaminopropan-2-ol cyclamate]	1.72	1 619 mcg/kg
CC(=O)c1cc(NC(=O)[C@H]2CC[C@H](O[N+](=O)[O-])CC2)ccc1OCC(O)CNC(C)(C)C (relative stereo) [6 (c), 1-[2-methylcarbonyl-4-[[(t-4-nitroxy)-cyclohexyl]-r-1-carbonylamino]]-phenoxy-3-tert.-butylaminopropan-2-ol hydrochloride]	1.34	2 273 mcg/kg
CC(C)(C)NCC(O)COc1ccc(NC(=O)C(C)(C)CO[N+](=O)[O-])cc1 (centres unmarked) [2 (b), 1-[4-(2-methyl-1-nitroxy-2-propyl)-carbonylamino]-phenoxy-3-tert.-butylaminopropan-2-ol hydrochloride]	0.68	4 164 mcg/kg
CC(C)(C)NCC(O)COc1ccc(CC(=O)N2CCCC(CO[N+](=O)[O-])C2)cc1 (centres unmarked) [9 (g), 1-[4-(3-nitroxymethyl-1-piperidino)-carbonylmethyl]-phenoxy-3-tert.-butylaminopropan-2-ol fumarate]	1.69	
CC(C)(C)NCC(O)COc1ccc(CC(=O)N2CCC(CO[N+](=O)[O-])CC2)cc1 (centres unmarked) [9 (h), 1-[4-(4-nitroxymethyl-1-piperidino)-carbonylmethyl]-phenoxy-3-tert.-butylaminopropan-2-ol fumarate]	1.06	1 207 mcg/kg
CC(C)(C)NCC(O)COc1ccc(NC(=O)CCCO[N+](=O)[O-])cc1C#N (centres unmarked) [4 (a), 1-[2-cyano-4-(3-nitroxypropyl)-carbonylamino]-phenoxy-3-tert.-butylaminopropan-2-ol hydrochloride]	0.74	180 µg/kg
CC(C)(C)NCC(O)COc1ccc(CC(=O)N[C@@H]2CCCC[C@H]2O[N+](=O)[O-])cc1 (relative stereo) [9 (d), trans-1-[4-[(2-nitroxycyclohexyl)-amino]-carbonylmethyl]-phenoxy-3-tert.-butylaminopropan-2-ol]	1.06	
CC(C)(C)NCC(O)COc1ccc(CC(=O)N2CCC(O[N+](=O)[O-])CC2)cc1 (centres unmarked) [9 (f), 1-[4-(4-nitroxy-1-piperidino)-carbonylmethyl]-phenoxy-3-tert.-butylaminopropan-2-ol fumarate]	1.23	
CC(CNC(=O)Cc1ccc(OCC(O)CNC(C)(C)C)cc1)O[N+](=O)[O-] (centres unmarked) [9 (a), 1-[4-[(2-nitroxypropyl)-amino]-carbonylmethyl]-phenoxy-3-tert.-butylaminopropan-2-ol hemifumarate]	0.34	3 147 mcg/kg
CN(CC(C)(C)CO[N+](=O)[O-])C(=O)Cc1ccc(OCC(O)CNC(C)(C)C)cc1 (centres unmarked) [9 (c), 1-[4-[[N--(2,2-dimethyl-3-nitroxypropyl)-N--methyl]-amino]-carbonylmethyl]-phenoxy-3-tert.-butylaminopropan-2-ol fumarate]	1.63	
C#CC(C)(C)NCC(O)COc1ccc(CC(=O)N2CCC(CO[N+](=O)[O-])CC2)cc1 (centres unmarked) [9 (j), 3-(2-methyl-3-butyn-2-yl)-amino-1-[4-(4-nitroxymethyl-1-piperidino)-carbonylmethyl]-phenoxypropan-2-ol fumarate]	1.94	
CC(C)(C)NCC(O)COc1ccc(NC(=O)[C@H]2CC[C@H](O[N+](=O)[O-])CC2)cc1C#N (relative stereo) [4 (c), 1-[2-cyano-4-[[(t-4-nitroxy)-cyclohexyl]-r-1-carbonylamino]]-phenoxy-3-tert.-butylaminopropan-2-ol benzoate]	1.95	
